In patent US20090246169A1, “INDOLOPYRIDINES AS EG5 KINESIN MODULATORS” (priority 2006, published 2009):

System: RKO p21 colon adenocarcinoma cells, uninduced (proliferating)
Assay: Alamar Blue cell viability assay, RKO p21 uninduced (proliferating)
Type: cell-based
Conditions: Homo sapiens; anti-proliferative/cytotoxic activity, 72 hours, without Ponasterone A; read-out: −log EC50 [mol/l] RKO p21 uninduced (proliferating) (converted)
Protocol: The anti-proliferative/cytotoxic activity of the compounds described herein can be tested on subclones of RKO human colon adenocarcinoma cells (Schmidt et al., Oncogene 19, 2423-2429; 2000) using the Alamar Blue cell viability assay (described in O'Brien et al. Eur J Biochem 267, 5421-5426, 2000). The compounds are dissolved as 10 mM solutions in DMSO and subsequently diluted in semi-logarithmic steps. DMSO dilutions are further diluted 1:100 into Dulbecco's modified Eagle's medium (DMEM) containing 10% fetal calf serum to a final concentration twice as much as the final concentration in the test. RKO subclones are seeded into 96 well flat bottom plates at a density of 4000 cells per well in a volume of 50 μl per well. 24 hours after seeding the 50 μl each of the compound dilutions in DMEM medium are added into each well of the 96 well plate. Each compound dilution is tested as triplicates. Wells containing untreated control cells are filled with 50 μl DMEM medium containing 1% DMSO. The cells are then incubated with the substances for 72 hours at 37° C. in a humidified atmosphere containing 5% carbon dioxide. To determine the viability of the cells, 10 μl of an Alamar Blue solution (Biosource) are added and the fluorescence is measured at an extinction of 544 nm and an emission of 590 nm. For the calculation of the cell viability the emission value from untreated cells is set as 100% viability and the emission rates of treated cells are set in relation to the values of untreated cells. Viabilities are expressed as % values. The Graphpad Prism program is used for the calculation of EC50 values for anti-proliferative/cytotoxic activity out of the obtained dose-response curves.
To determine the cell cycle specific mode of action, subclones of RKO colon adenocarcinoma cells (RKOp21 or RKOp27 as described by Schmidt et al. in Oncogene 19, 2423-2429; 2000) are seeded into 96 well flat bottom plates at a density of 16000 cells per well in a volume of 50 μl per well in DMEM growth medium with 10% FCS containing 10 μM Ponasterone A. 24 hours after seeding the 50 μl each of the compound dilutions in DMEM medium are added into each well of the 96-well plate. Each compound dilution is tested as triplicates. Wells containing untreated control cells are filled with 50 μl DMEM medium containing 1% DMSO. The cells are then incubated with the substances for 72 hours at 37° C. in a humidified atmosphere containing 5% carbon dioxide. To determine the viability of the cells, 10 μl of an Alamar Blue solution (Biosource) are added and the fluorescence is measured at an extinction of 544 nm and an emission of 590 nm. For the calculation of the cell viability the emission value from untreated cells is set as 100% viability and the emission rates of treated cells are set in relation to the values of untreated cells. Viabilities are expressed as % values. The Graphpad Prism program (GraphPad Software, Inc) is used for the calculation of EC50 values out of the obtained dose-response curves. Viability is compared of proliferating cells grown in the absence of the inducer Ponasterone A, versus viability of cells arrested by the expression of ectopic p27Kip1 induced by Ponasterone A.
Representative values for anti-proliferation/cytotoxicity [measured as −log EC50 (mol/l)] determined in the aforementioned assays follow from the following tables B1 and B2, in which the numbers of the compounds correspond to the numbers of the examples.

| Structure (SMILES) | EC50 [nM] |
| --- | --- |
| COc1ccc2[nH]c3c(c2c1)C[C@@]1(C)C(=O)N(C)C(=O)N1[C@@H]3c1ccccc1 (racemic) [Example 2, (3aSR,10RS)-6-Methoxy-2,3a-dimethyl-10-phenyl-3a,4,9,10-tetrahydro-2,9,10a-triaza-cyclopenta[b]fluorene-1,3-dione] | ≤ 1000 |
| COc1ccc2[nH]c3c(c2c1)C[C@@]1(C)C(=O)N(CCN2CCCC2)C(=O)N1[C@@H]3c1ccccc1 (racemic) [Example 3, (3aSR,10RS)-6-Methoxy-3a-methyl-10-phenyl-2-(2-pyrrolidin-1-yl-ethyl)-3a,4,9,10-tetrahydro-2,9,10a-triaza-cyclopenta[b]fluorene-1,3-dione] | ≤ 1000 |
| CC[C@@]12Cc3c([nH]c4ccc(OC)cc34)[C@@H](c3ccccc3)N1C(=O)N(CCN(C)C)C2=O (racemic) [Example 5, (3aSR,10RS)-2-(2-Dimethylamino-ethyl)-3a-ethyl-6-methoxy-10-phenyl-3a,4,9,10-tetrahydro-2,9,10a-triaza-cyclopenta[b]fluorene-1,3-dione] | ≤ 1000 |
| CC[C@@]12Cc3c([nH]c4ccc(OC)cc34)[C@@H](c3ccccc3)N1C(=O)N(CCCN(C)C)C2=O (racemic) [Example 6, (3aSR,10RS)-2-(3-Dimethylamino-propyl)-3a-ethyl-6-methoxy-10-phenyl-3a,4,9,10-tetrahydro-2,9,10a-triaza-cyclopenta[b]fluorene-1,3-dione] | ≤ 1000 |
| COc1ccc2[nH]c3c(c2c1)C[C@@]1(C)C(=O)N(CCCN)C(=O)N1[C@@H]3c1ccccc1 (racemic) [Example 7, (3aSR,10RS)-2-(3-Amino-propyl)-6-methoxy-3a-methyl-10-phenyl-3a,4,9,10-tetrahydro-2,9,10a-triaza-cyclopenta[b]fluorene-1,3-dione] | ≤ 1000 |
| CC[C@@]12Cc3c([nH]c4ccc(OC)cc34)[C@@H](c3ccccc3)N1C(=O)N(CCN)C2=O (racemic) [Example 10, (3aSR,10RS)-2-(2-Amino-ethyl)-3a-ethyl-6-methoxy-10-phenyl-3a,4,9,10-tetrahydro-2,9,10a-triaza-cyclopenta[b]fluorene-1,3-dione] | ≤ 1000 |
| COc1ccc2[nH]c3c(c2c1)C[C@@]1(C)C(=O)N(CCN)C(=O)N1[C@@H]3c1ccccc1 (racemic) [Example 13, (3aSR,10RS)-2-(2-Amino-ethyl)-6-methoxy-3a-methyl-10-phenyl-3a,4,9,10-tetrahydro-2,9,10a-triaza-cyclopenta[b]fluorene-1,3-dione] | ≤ 1000 |
| CNCCN1C(=O)N2[C@H](c3ccccc3)c3[nH]c4ccc(OC)cc4c3C[C@@]2(C)C1=O (racemic) [Example 14, (3aSR,10RS)-6-Methoxy-3a-methyl-2-(2-methylamino-ethyl)-10-phenyl-3a,4,9,10-tetrahydro-2,9,10a-triaza-cyclopenta[b]fluorene-1,3-dione] | ≤ 1000 |
| CCNCCN1C(=O)N2[C@H](c3ccccc3)c3[nH]c4ccc(OC)cc4c3C[C@@]2(C)C1=O (racemic) [Example 15, (3aSR,10RS)-2-(2-Ethylamino-ethyl)-6-methoxy-3a-methyl-10-phenyl-3a,4,9,10-tetrahydro-2,9,10a-triaza-cyclopenta[b]fluorene-1,3-dione] | ≤ 1000 |
| COc1ccc2[nH]c3c(c2c1)C[C@@]1(C)C(=O)N(CCN2CCC2)C(=O)N1[C@@H]3c1ccccc1 (racemic) [Example 16, (3aSR,10RS)-2-(2-Azetidin-1-yl-ethyl)-6-methoxy-3a-methyl-10-phenyl-3a,4,9,10-tetrahydro-2,9,10a-triaza-cyclopenta[b]fluorene-1,3-dione] | ≤ 1000 |
| COc1ccc2[nH]c3c(c2c1)C[C@@]1(C)C(=O)N(CCNC(C)C)C(=O)N1[C@@H]3c1ccccc1 (racemic) [Example 19, (3aSR,10RS)-2-(2-Isopropylamino-ethyl)-6-methoxy-3a-methyl-10-phenyl-3a,4,9,10-tetrahydro-2,9,10a-triaza-cyclopenta[b]fluorene-1,3-dione] | ≤ 1000 |
| COc1ccc2[nH]c3c(c2c1)C[C@@]1(C)C(=O)N(CCNCC2CC2)C(=O)N1[C@@H]3c1ccccc1 (racemic) [Example 25, (3aSR, 10RS)-2-[2-(Cyclo-propylmethyl-amino)-ethyl]-6-methoxy-3a-methyl-10-phenyl-3a,4,9,10-tetrahydro-2,9,10a-triaza-cyclopenta [b]fluorene-1,3-dione] | ≤ 1000 |
| COc1ccc2[nH]c3c(c2c1)C[C@@]1(C)C(=O)N(CCNCCO)C(=O)N1[C@@H]3c1ccccc1 (racemic) [Example 26, (3aSR, 10RS)-2-[2-(2-Hydroxy-ethylamino)-ethyl]-6-methoxy-3a-methyl-10-phenyl-3a,4,9,10-tetrahydro-2,9,10a-triaza-cyclopenta[b] fluorene-1,3-dione] | ≤ 1000 |
| COc1ccc2[nH]c3c(c2c1)C[C@@]1(C)C(=O)N(CCNC(C)(C)C)C(=O)N1[C@@H]3c1ccccc1 (racemic) [Example 27, (3aSR, 10RS)-2-(2-tert-Butylamino-ethyl)-6-methoxy-3a-methyl-10-phenyl-3a,4,9,10-tetrahydro-2,9,10a-triaza-cyclopenta[b]fluorene-1,3-dione] | ≤ 1000 |
| C=CCNCCN1C(=O)N2[C@H](c3ccccc3)c3[nH]c4ccc(OC)cc4c3C[C@@]2(C)C1=O (racemic) [Example 28, (3aSR, 10RS)-2-(2-Allyl-amino-ethyl)-6-methoxy-3a-methyl-10-phenyl-3a,4,9,10-tetrahydro-2,9,10a-triaza-cyclopenta[b]fluorene-1,3-dione] | ≤ 1000 |
| C#CCNCCN1C(=O)N2[C@H](c3ccccc3)c3[nH]c4ccc(OC)cc4c3C[C@@]2(C)C1=O (racemic) [Example 29, (3aSR, 10RS)-6-Methoxy-3a-methyl-10-phenyl-2-(2-prop-2-ynylamino-ethyl)-3a,4,9,10-tetrahydro-2,9,10a-triaza-cyclopenta[b]fluorene-1,3-dione] | ≤ 1000 |
| COc1ccc2[nH]c3c(c2c1)C[C@@]1(C)C(=O)N(CCN(C)CCO)C(=O)N1[C@@H]3c1ccccc1 (racemic) [Example 30, (3aSR, 10RS)-2-{2-[(2-Hydroxy-ethyl)-methyl-amino]-ethyl}-6-methoxy-3a-methyl-10-phenyl-3a,4,9,10-tetrahydro-2,9,10a-triaza-cyclopenta[b]fluorene-1,3-dione] | ≤ 1000 |
| COc1ccc2[nH]c3c(c2c1)C[C@@]1(C)C(=O)N(CCN2CC=CC2)C(=O)N1[C@@H]3c1ccccc1 (racemic) [Example 31, (3aSR, 10RS)-2-[2-(2,5-Dihydro-pyrrol-1-yl)-ethyl]-6-methoxy-3a-methyl-10-phenyl-3a,4,9,10-tetrahydro-2,9,10a-triaza-cyclopenta[b] fluorene-1,3-dione] | ≤ 1000 |
| COc1ccc2[nH]c3c(c2c1)C[C@@]1(C)C(=O)N(CCN2CCCCC2)C(=O)N1[C@@H]3c1ccccc1 (racemic) [Example 32, (3aSR, 10RS)-6-Methoxy-3a-methyl-10-phenyl-2-(2-piperidin-1-yl-ethyl)-3a,4,9,10-tetrahydro-2,9,10a-triaza-cyclopenta[b]fluorene-1,3-dione] | ≤ 1000 |
| COc1ccc2[nH]c3c(c2c1)C[C@@]1(C)C(=O)N(CCN2CC=CCC2)C(=O)N1[C@@H]3c1ccccc1 (racemic) [Example 33, (3aSR, 10RS)-2-[2-(3,6-Dihydro-2H-pyridin-1-yl)-ethyl]-6-methoxy-3a-methyl-10-phenyl-3a,4,9,10-tetra-hydro-2,9,10a-triaza-cyclo-penta[b]fluorene-1,3-dione] | ≤ 1000 |
| COc1ccc2[nH]c3c(c2c1)C[C@@]1(C)C(=O)N(CCN2CCN(C)CC2)C(=O)N1[C@@H]3c1ccccc1 (racemic) [Example 34, (3aSR, 10RS)-6-Methoxy-3a-methyl-2-[2-(4-methyl-piperazin-1-yl)-ethyl]-10-phenyl-3a,4,9,10-tetrahydro-2,9,10a-triaza-cyclopenta[b] fluorene-1,3-dione] | ≤ 1000 |
